As usually defined, the Km is the substrate concentration at which the rate is half of its maximum. A word on the kcat: it is the maximal rate divided by the concentration of active sites.

This assay relates to human thrombin. The experiment in a line: kinetic analysis of chromogenic substrate hydrolysis by thrombin. Format: biochemical. Conditions: substrate 0.1 M in 0.17 M Tris buffer, pH 7.4; human thrombin 0.63 mg/ml; 37° C.; monitored at 405 nm. Here is the method:
The enzyme and the substrate are mixed in a buffer solution, and the reaction is followed spectrophotometrically for 2 to 30 minutes. The concentration of substrate [S] is varied, whereas the enzyme concentration [E] is kept constant. If the extinction (OD) (=optical density) is plotted in a coordinate system as a function of time, a curve is obtained the tangent of which (difference in extinction per minute, Δ OD/minute, from which the quantity in μmoles of pNA/min(v) can be calculated) at time zero corresponds to the initial course of the hydrolysis. By means of this tangent the initial rate of the hydrolysis can be determined.
If l/v is plotted against l/[S], a Lineweaver-Burk diagram is obtained from which vmax and Km can be determined graphically. Thus Km and kcat can be determined.

With “sarcosylprolylarginine-p-nitrophenylanilide hydrochloride [Sar-Pro-Arg-pNA.2HCl]”, the Km turned out to be 920 µM and the kcat was 158 s⁻¹.

These data come from patent US4216142A, “Chromogenic substrates for the proteolytic enzymes” (Abbott Laboratories, priority 1978, dated 1980).
